Literature values in US6576233B2 (priority 1996, dated 2003).

Assays:
people = conditions: daily supplement, more than 1,300 people
[1] = Ferris et al. 1989

Structure (SMILES): [Se] [Selenium, selenium]
- reduction of overall cancer risk (people): ~40%
- dosage reported as safe [1]: 600 micrograms per day
